Patent publication US10206937B2, “Boronic acid derivatives and therapeutic uses thereof” (Qpex Biopharma, Inc., priority 2014, dated 2019)

What was measured:
[1] = target: T1, purified class A, C and D enzymes (UniProt Q9F663); format: biochemical; settings: read-out: Ki (KPC-2, NCF); purified KPC-2; nitrocefin reporter substrate
T1 construct: rows headed: Ki (KPC-2, NCF); other: purified KPC-2; nitrocefin reporter substrate

[2] = target: purified class A, C and D enzymes (Escherichia coli, UniProt Q9L5C7); format: biochemical; settings: purified CTX-M-14; nitrocefin reporter substrate
Chain of purified class A, C and D enzymes (Escherichia coli, UniProt Q9L5C7) (Q9L5C7 entry or part of it): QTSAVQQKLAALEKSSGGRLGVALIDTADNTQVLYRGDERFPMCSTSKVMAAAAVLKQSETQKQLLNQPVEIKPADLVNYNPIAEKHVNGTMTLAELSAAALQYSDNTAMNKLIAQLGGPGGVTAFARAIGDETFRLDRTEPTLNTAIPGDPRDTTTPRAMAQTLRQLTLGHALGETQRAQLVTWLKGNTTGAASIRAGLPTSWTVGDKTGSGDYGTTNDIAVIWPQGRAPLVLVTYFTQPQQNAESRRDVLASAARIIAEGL

[3] = target: purified class A, C and D enzymes (Enterobacter cloacae, UniProt P05364); format: biochemical; settings: purified P99/AmpC of ECL; nitrocefin reporter substrate
Chain of purified class A, C and D enzymes (Enterobacter cloacae, UniProt P05364) (P05364 21-381): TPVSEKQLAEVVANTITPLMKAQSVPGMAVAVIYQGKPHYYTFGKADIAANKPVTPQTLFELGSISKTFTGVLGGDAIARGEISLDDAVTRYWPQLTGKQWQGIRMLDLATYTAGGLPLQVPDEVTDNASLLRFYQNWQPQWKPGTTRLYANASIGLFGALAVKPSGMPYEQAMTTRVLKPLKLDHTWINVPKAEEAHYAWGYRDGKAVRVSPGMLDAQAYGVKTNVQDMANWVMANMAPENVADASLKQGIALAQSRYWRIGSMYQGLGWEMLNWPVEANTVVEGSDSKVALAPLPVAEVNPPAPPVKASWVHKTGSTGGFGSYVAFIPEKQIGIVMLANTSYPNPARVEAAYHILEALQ

[4] = target: T2, purified class A, C and D enzymes (UniProt Q6XEC0); format: biochemical; settings: read-out: Ki (OXA-48, NCF); purified OXA-48; nitrocefin reporter substrate
T2 construct: rows headed: Ki (OXA-48, NCF); other: purified OXA-48; nitrocefin reporter substrate

[5] = target: T3, purified class A, C and D enzymes (UniProt P0AD64, L31Q/G234S/E235K, species not given); format: biochemical; settings: read-out: Ki (SHV-12, NCF); purified SHV-12; nitrocefin reporter substrate
T3 construct: Ki (SHV-12, NCF); other: purified SHV-12; nitrocefin reporter substrate
T3 sequence (P0AD64 1-286 L31Q/G234S/E235K): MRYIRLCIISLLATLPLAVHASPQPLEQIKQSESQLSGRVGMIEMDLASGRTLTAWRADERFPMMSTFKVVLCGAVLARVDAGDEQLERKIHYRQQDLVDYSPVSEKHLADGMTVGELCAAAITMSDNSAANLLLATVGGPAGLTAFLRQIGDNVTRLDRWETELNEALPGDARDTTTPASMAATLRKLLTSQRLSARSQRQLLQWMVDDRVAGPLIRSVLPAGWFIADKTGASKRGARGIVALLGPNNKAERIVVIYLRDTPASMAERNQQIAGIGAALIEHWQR

VIM-1 = target: T4, VIM-1 (Pseudomonas aeruginosa, UniProt A0A0F7KYQ8); assay: biochemical; settings: cleavage of nitrocefin (200 uM) by VIM-1 supernatant
T4 construct: made in house; host or cells: ECM6711 strain carrying pUCP24-VIM-1 plasmid; culture supernatant used unpurified

NDM-1 [6] = target: T5, NDM-1 (Klebsiella pneumoniae, UniProt C7C422); assay: biochemical; settings: cleavage of imipenem (100 uM) by NDM-1; read-out: Ki, Imipenem
T5 sequence (C7C422 29-270, looked up, species assumed): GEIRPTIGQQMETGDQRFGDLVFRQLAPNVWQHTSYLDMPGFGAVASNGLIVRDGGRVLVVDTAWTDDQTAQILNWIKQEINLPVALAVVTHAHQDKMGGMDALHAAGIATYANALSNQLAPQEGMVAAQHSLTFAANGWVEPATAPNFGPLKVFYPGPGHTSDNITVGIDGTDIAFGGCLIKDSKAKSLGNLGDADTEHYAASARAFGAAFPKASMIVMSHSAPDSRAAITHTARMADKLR

NDM-1 [7] = target: T5, NDM-1; assay: Inhibition of purified class B carbapenemase NDM-1 (Ki, imipenem substrate); format: biochemical; settings: NDM-1, substrate imipenem; read-out: Ki NDM-1, Imipenem

Structure (SMILES) | Ki [1] [nM] | Ki (CTX-M-14, NCF) [2] | Ki (P99/AmpC of ECL, NCF) [3] | Ki [4] [nM] | Ki [5] [nM] | IC50 (VIM-1) [nM] | Ki (NDM-1 [6]) [nM] | Ki (NDM-1 [7]) [nM]
Nc1nnc(S[C@H]2Cc3cc(F)c(F)c(C(=O)O)c3OB2O)s1 [Compound 37, (R)-3-(5-amino-1,3,4-thiadiazol-2-ylthio)-6,7-difluoro-2-hydroxy-3,4-dihydro-2H-benzo[e][1,2]oxaborinine-8-carboxylic acid] | < 100 | X (Less than 0.1 μM) | Z (Greater than 1 μM) | < 100 | < 100 | ≥ 1000 | 10 to 100 | 10 to 100
O=C(O)c1c(F)ccc2c1OB(O)[C@@H](Sc1cnns1)C2 [Compound 48, (3R)-7-fluoro-2-hydroxy-3-(thiadiazol-5-ylsulfanyl)-3,4-dihydro-1,2-benzoxaborinine-8-carboxylic acid] | 100 to 1000 | X (Less than 0.1 μM) | Z (Greater than 1 μM) | < 100 | < 100 | ≥ 1000 | > 100 | > 100
Nc1nnc(S[C@H]2Cc3c(F)c(F)c(F)c(C(=O)O)c3OB2O)s1 [Compound 38, (R)-3-(5-amino-1,3,4-thiadiazol-2-ylthio)-5,6,7-trifluoro-2-hydroxy-3,4-dihydro-2H-benzo[e][1,2]oxaborinine-8-carboxylic acid] | > 1000 | X (Less than 0.1 μM) | Y (0.1 μM to 1 μM) | < 100 | < 100 | ≥ 1000 | > 100 | > 100
O=C(O)c1c(OCCF)ccc2c1OB(O)[C@@H](Sc1nncs1)C2 [Compound 87, (3R)-7-(2-fluoroethoxy)-2-hydroxy-3-(1,3,4-thiadiazol-2-ylsulfanyl)-3,4-dihydro-1,2-benzoxaborinine-8-carboxylic acid] | 100 to 1000 | X (Less than 0.1 μM) | Y (0.1 μM to 1 μM) | < 100 | < 100 | < 1000 | > 100 | 10 to 100
CCOc1ccc2c(c1C(=O)O)OB(O)[C@@H](Sc1nnc(NC3CNC3)s1)C2 [Compound 118, (3R)-3-[[5-(azetidin-3-ylamino)-1,3,4-thiadiazol-2-yl]sulfanyl]-7-ethoxy-2-hydroxy-3,4-dihydro-1,2-benzoxaborinine-8-carboxylic acid] | 100 to 1000 | X (Less than 0.1 μM) | Y (0.1 μM to 1 μM) | < 100 | < 100 | < 1000 | > 100 | > 100
COCc1ccc2c(c1C(=O)O)OB(O)[C@@H](Sc1nnc(N)s1)C2 [Compound 35, (R)-3-(5-amino-1,3,4-thiadiazol-2-ylthio)-2-hydroxy-7-(methoxymethyl)-3,4-dihydro-2H-benzo[e][1,2]oxaborinine-8-carboxylic acid] | < 100 | X (Less than 0.1 μM) | Y (0.1 μM to 1 μM) | < 100 | < 100 | < 1000 | 10 to 100 | 10 to 100
COc1ccc2c(c1C(=O)O)OB(O)[C@@H](Sc1nnc(NCCN3CCNCC3)s1)C2 [Compound 98, (3R)-2-hydroxy-7-methoxy-3-[[5-(2-piperazin-1-ylethylamino)-1,3,4-thiadiazol-2-yl]sulfanyl]-3,4-dihydro-1,2-benzoxaborinine-8-carboxylic acid] | 100 to 1000 | X (Less than 0.1 μM) | Y (0.1 μM to 1 μM) | < 100 | < 100 | < 1000 | 10 to 100 | 10 to 100
